Results taken from ChEMBL document CHEMBL4828748, “Design, synthesis, and pharmacological evaluation of sinomenine derivatives on rings A and C: Novel compounds screening for aplastic anemia targeting on cytotoxic T lymphocyte” (Eur J Med Chem, 2021).
Calls of active or inactive are those of the source. No cut-off for these calls is given here.

Columns and labels:
[1] = Inhibition of CD3/CD28 antibody-stimulated C57BL/6 mouse primary CD8-positive T lymphocytes activation assessed as proportion of CD69-positive cells at 3 uM incubated for 48 hrs by flow cytometry (reference value: 93.42%); format: functional, CD8-positive T cell; design: scale not given: the % may be the effect or the level left
[2] = system: Mus musculus; assay: Anti-aplastic anaemia in immune-mediated bone marrow failure BALB/c mouse model assessed as prevention of food intake decrease at 2.5 to 10 mg/kg, po administered for 14 days; format: functional, organism-based; details: dose 2.5-10 mg/kg, time 14.0 day
[3] = system: CD8-positive T cell; assay: Inhibition of CD3/CD28 antibody-stimulated C57BL/6 mouse primary CD8-positive T lymphocytes proliferation at 1 to 5 uM incubated for 48 hrs by CFSE staining based flow cytometry; format: functional, tissue-based; details: dose 1-5 µM
[4] = Cytotoxicity against C57BL/6J mouse peritoneal macrophages assessed as reduction of cell viability at 10 uM incubated for 24 hrs in presence of LPS by MTT assay; format: cell-based, Peritoneal macrophage
[5] = system: Mus musculus; assay: Anti-aplastic anaemia in immune-mediated bone marrow failure BALB/c mouse model assessed as increase in nucleated cell counts in femur at 2.5 to 10 mg/kg, po administered for 14 days and measured on day 14 by Hematoxylin-Eosin staining based analysis; format: functional, organism-based; details: dose 2.5-10 mg/kg, time 14.0 day
[6] = Inhibition of CD3/CD28 antibody-stimulated C57BL/6 mouse primary CD8-positive T lymphocytes activation assessed as proportion of CD69-positive cells at 1 uM incubated for 48 hrs by flow cytometry (reference value: 93.42%); format: functional, CD8-positive T cell; design: scale not given: the % may be the effect or the level left
[7] = system: Mus musculus; assay: Anti-aplastic anaemia in immune-mediated bone marrow failure BALB/c mouse model assessed as increase in hematocrit content at 2.5 to 10 mg/kg, po administered for 14 days and measured on day 14 by automated micro-analyzer; format: functional, organism-based; details: dose 2.5-10 mg/kg, time 14.0 day
[8] = system: Mus musculus; assay: Anti-aplastic anaemia in immune-mediated bone marrow failure BALB/c mouse model assessed as increase in immature reticulocytes administered orally for 14 days and measured on day 14 by automated micro-analyzer; format: functional, organism-based; details: dose 2.5-10 mg/kg, time 14.0 day
[9] = system: Mus musculus; assay: Anti-aplastic anaemia in immune-mediated bone marrow failure BALB/c mouse model assessed as reduction in histopathological changes in femur at 2.5 to 10 mg/kg, po administered for 14 days and measured on day 14 by Hematoxylin-Eosin staining based analysis; format: functional, organism-based; details: dose 2.5-10 mg/kg, time 14.0 day
[10] = system: Mus musculus; assay: Anti-aplastic anaemia in immune-mediated bone marrow failure BALB/c mouse model assessed as increase in eosinophils count at 2.5 to 10 mg/kg, po administered for 14 days and measured on day 14 by automated micro-analyzer; format: functional, organism-based; details: dose 2.5-10 mg/kg, time 14.0 day
[11] = system: Mus musculus; assay: Anti-aplastic anaemia in immune-mediated bone marrow failure BALB/c mouse model assessed as increase in neutrophils count at 2.5 to 10 mg/kg, po administered for 14 days and measured on day 14 by automated micro-analyzer; format: functional, organism-based; details: dose 2.5-10 mg/kg, time 14.0 day
[12] = system: Mus musculus; assay: Anti-aplastic anaemia in immune-mediated bone marrow failure BALB/c mouse model assessed as increase in spleen index at 2.5 to 10 mg/kg, po administered for 14 days; format: functional, organism-based; details: dose 2.5-10 mg/kg, time 14.0 day
[13] = biological target: Voltage-gated inwardly rectifying potassium channel KCNH2 (Homo sapiens, UniProt Q12809); assay: Inhibition of human ERG expressed in CHO cells measured after 24 hrs by patch clamp assay; format: cell-based
Chain of Voltage-gated inwardly rectifying potassium channel KCNH2 (Q12809 whole entry): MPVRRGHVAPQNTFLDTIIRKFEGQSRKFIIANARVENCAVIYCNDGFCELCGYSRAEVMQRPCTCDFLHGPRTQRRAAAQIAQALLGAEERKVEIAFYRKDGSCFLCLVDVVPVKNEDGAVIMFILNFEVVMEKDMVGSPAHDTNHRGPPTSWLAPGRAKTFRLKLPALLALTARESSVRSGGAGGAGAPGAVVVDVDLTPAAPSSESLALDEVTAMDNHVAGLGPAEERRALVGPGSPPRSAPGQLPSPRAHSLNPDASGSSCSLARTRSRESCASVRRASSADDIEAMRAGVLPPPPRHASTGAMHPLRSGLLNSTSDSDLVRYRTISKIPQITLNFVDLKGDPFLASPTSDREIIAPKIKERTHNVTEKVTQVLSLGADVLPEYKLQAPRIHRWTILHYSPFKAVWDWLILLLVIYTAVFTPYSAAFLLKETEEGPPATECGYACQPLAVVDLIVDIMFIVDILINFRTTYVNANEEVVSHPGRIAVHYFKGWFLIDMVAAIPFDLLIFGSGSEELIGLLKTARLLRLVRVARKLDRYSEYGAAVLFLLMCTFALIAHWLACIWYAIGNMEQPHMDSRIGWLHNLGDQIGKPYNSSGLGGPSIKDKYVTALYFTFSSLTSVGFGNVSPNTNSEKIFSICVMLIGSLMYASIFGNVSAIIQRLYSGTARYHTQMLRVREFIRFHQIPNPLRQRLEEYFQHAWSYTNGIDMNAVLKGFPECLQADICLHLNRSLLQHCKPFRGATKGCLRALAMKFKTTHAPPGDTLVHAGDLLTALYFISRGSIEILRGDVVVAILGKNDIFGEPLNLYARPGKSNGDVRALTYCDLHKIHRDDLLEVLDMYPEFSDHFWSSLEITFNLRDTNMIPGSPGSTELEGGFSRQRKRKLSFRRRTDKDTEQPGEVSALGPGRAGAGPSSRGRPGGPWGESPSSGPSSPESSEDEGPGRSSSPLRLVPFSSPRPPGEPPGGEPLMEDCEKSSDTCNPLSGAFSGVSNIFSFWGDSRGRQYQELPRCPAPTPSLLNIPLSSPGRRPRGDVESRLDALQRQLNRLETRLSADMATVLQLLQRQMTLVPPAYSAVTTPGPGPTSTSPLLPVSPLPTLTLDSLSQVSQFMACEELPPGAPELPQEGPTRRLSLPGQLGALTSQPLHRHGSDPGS

[14] = system: Mus musculus; assay: Anti-aplastic anaemia in immune-mediated bone marrow failure BALB/c mouse model assessed as increase in plateletcrit at 2.5 to 10 mg/kg, po administered for 14 days and measured on day 14 by automated micro-analyzer; format: functional, organism-based; details: dose 2.5-10 mg/kg, time 14.0 day
[15] = system: Mus musculus; assay: Anti-aplastic anaemia in immune-mediated bone marrow failure BALB/c mouse model assessed as increase in hemoglobin content at 2.5 to 10 mg/kg, po administered for 14 days and measured on day 14 by automated micro-analyzer; format: functional, organism-based; details: dose 2.5-10 mg/kg, time 14.0 day
[16] = system: Mus musculus; assay: Anti-aplastic anaemia in immune-mediated bone marrow failure BALB/c mouse model assessed as increase in RBC count at 2.5 to 10 mg/kg, po administered for 14 days and measured on day 14 by automated micro-analyzer; format: functional, organism-based; details: dose 2.5-10 mg/kg, time 14.0 day
[17] = Inhibition of IFN-gamma release in mouse CTLL-2 cells measured after 24 hrs by ELISA; format: functional, cell-based; details: CTLL-2, 24 h
[18] = system: Mus musculus; assay: Anti-aplastic anaemia in immune-mediated bone marrow failure BALB/c mouse model assessed as increase in ratio of nucleated cell to erythroid cell counts in femur at 2.5 to 10 mg/kg, po administered for 14 days and measured on day 14 by Hematoxylin-Eosin staining based analysis; format: functional, organism-based; details: dose 2.5-10 mg/kg, time 14.0 day
[19] = system: CD8-positive T cell; assay: Inhibition of aerobic glycolysis in CD3/CD28 antibody-stimulated C57BL/6 mouse primary CD8-positive T lymphocytes assessed as reduction in lactate production at 1 to 5 uM incubated for 48 hrs; format: functional, tissue-based; details: dose 1-5 µM
[20] = Inhibition of CD3/CD28 antibody-stimulated C57BL/6 mouse primary CD8-positive T lymphocytes activation assessed as proportion of CD69-positive cells at 5 uM incubated for 48 hrs by flow cytometry (reference value: 93.42%); format: functional, CD8-positive T cell; design: scale not given: the % may be the effect or the level left
[21] = Cytotoxicity against C57BL/6 mouse primary CD8-positive T lymphocytes assessed as effect on cell viability at 1 to 5 uM incubated for 48 hrs by CCK8 assay; format: tissue-based; details: dose 1-5 µM
[22] = system: CD8-positive T cell; assay: Inhibition of CD3/CD28 antibody-stimulated C57BL/6 mouse primary CD8-positive T lymphocytes proliferation assessed as reduction in cell viability incubated for 48 hrs by CCK8 assay; format: functional, tissue-based; details: dose 1-10 µM
[23] = system: Mus musculus; assay: Anti-aplastic anaemia in immune-mediated bone marrow failure BALB/c mouse model assessed as increase in thymus index at 2.5 to 10 mg/kg, po administered for 14 days; format: functional, organism-based; details: dose 2.5-10 mg/kg, time 14.0 day
[24] = Inhibition of hematopoietic negative regulators release in CD3/CD28 antibody-stimulated C57BL/6 mouse primary CD8-positive T lymphocytes assessed as suppression of IFN-gamma release measured after 48 hrs by ELISA; format: functional, tissue-based; details: C57BL/6, CD8-positive T cell
[25] = Inhibition of hematopoietic negative regulators release in CD3/CD28 antibody-stimulated C57BL/6 mouse primary CD8-positive T lymphocytes assessed as suppression of TNF-alpha release measured after 48 hrs by ELISA; format: functional, tissue-based; details: C57BL/6, CD8-positive T cell
[26] = Inhibition of mouse CTLL-2 cells activity incubated for 24 hrs; format: functional, cell-based
[27] = Inhibition of mouse CTLL-2 cells activity at 10 uM incubated for 24 hrs; format: functional
[28] = system: Mus musculus; assay: Anti-aplastic anaemia in immune-mediated bone marrow failure BALB/c mouse model assessed as slowing down the weight loss at 2.5 to 10 mg/kg, po administered for 14 days; format: functional, organism-based; details: dose 2.5-10 mg/kg, time 14.0 day
[29] = system: Mus musculus; assay: Anti-aplastic anaemia in immune-mediated bone marrow failure BALB/c mouse model assessed as increase in platelet count at 2.5 to 10 mg/kg, po administered for 14 days and measured on day 14 by automated micro-analyzer; format: functional, organism-based; details: dose 2.5-10 mg/kg, time 14.0 day
[30] = system: Mus musculus; assay: Anti-aplastic anaemia in immune-mediated bone marrow failure BALB/c mouse model assessed as increase in WBC count at 2.5 to 10 mg/kg, po administered for 14 days and measured on day 14 by automated micro-analyzer; format: functional, organism-based; details: dose 2.5-10 mg/kg, time 14.0 day
[31] = Acute toxicity in po dosed Kunming mouse; format: organism-based; details: in vivo
[32] = system: CD8-positive T cell; assay: Inhibition of aerobic glycolysis in CD3/CD28 antibody-stimulated C57BL/6 mouse primary CD8-positive T lymphocytes assessed as reduction in glucose consumption at 1 to 5 uM incubated for 48 hrs; format: functional, tissue-based; details: dose 1-5 µM
[33] = system: Peritoneal macrophage; assay: Inhibition of LPS-induced NO production in C57BL/6J mouse peritoneal macrophages at 10 uM measured after 24 hrs in presence of LPS by Griess reagent based assay relative to control; format: functional
[34] = Acute toxicity in Kunming mouse assessed as animal survival without abnormal state at 5 to 10 g/kg, po administered as single dose; format: organism-based; details: in vivo, dose 5-10 g/Kg
[35] = biological target: hERG (KCNH2) (Homo sapiens, UniProt Q12809); assay: Inhibition of human ERG expressed in CHO cells measured after 24 hrs by patch clamp assay relative to control; format: cell-based; details: CHO cells expressing human ERG
Chain of hERG (KCNH2) (Q12809 whole entry): as above

With COC1=C[C@@H]2[C@@H]3Cc4c(COC(=O)/C=C/c5ccccc5)cc(OC)c(OC(=O)/C=C/c5ccccc5)c4[C@]2(CCN3C)CC1=O the Activity [1] was 80.87%, the Activity [2] was “Active” and the inhibition [3] was “Active”. For the same molecule, the inhibition at 24 h, 10 µM [4] was 6.4%, the Activity [5] was “Active” and the Activity [6] was 89.37%. For the same molecule, the Activity [7] was “Active”, the Activity [8] was “Active” and the Activity [9] was “Active”. The Activity [10] was “Active”, the Activity [11] was “Active” and the Activity [12] was “Active”. For the same molecule, the IC50 [13] was greater than 30 µM, the Activity [14] was “Active” and the Activity [15] was “Active”. For the same molecule, the Activity [16] was “Active”, the IC50 [17] was 4.5 µM and the Activity [18] was “Active”. For the same molecule, the inhibition [19] was “Active”, the Activity [20] was 76.97% and the Activity [21] was “Non-Toxic”. The inhibition [22] was “Dose-Dependent Effect”, the Activity [23] was “Active” and the IC50 [24] was 3.2 µM. The IC50 [25] was 4.4 µM, the IC50 [26] was 2.3 µM and the inhibition at 10 µM [27] was 98.1%. For the same molecule, the Activity [28] was “Active”, the Activity [29] was “Active” and the Activity [30] was “Active”. The LD50 [31] was greater than 10000 mg/kg, the inhibition [32] was “Active” and the inhibition at 10 µM [33] was 97.1%. The Survival [34] was 14 days and the inhibition at 24 h [35] was 26.2%.
